According to patent publication US11760751B2, “Benzo 2-azaspiro[4.4]nonane compound and use thereof” (HELIOEAST PHARMACEUTICAL CO., LTD., priority 2020, dated 2023):
Counter-ions that a name gives are not always drawn. Like-named read-outs stand apart in the source and are kept apart here. Blank lines part the entries; values can stand above or below the molecule they belong to.

Assays:
[1] = target: T1, S1PR1 (Homo sapiens, UniProt P21453); test: In vitro S1PR1 agonistic activity, PathHunter cell line, chemiluminescent detection; assay type: cell-based; conditions: for EC50: 90-180 min at 37° C.; for Emax: % activity vs maximum control ligand
T1 construct: expressed in transfected cells
T1 sequence (P21453 whole entry): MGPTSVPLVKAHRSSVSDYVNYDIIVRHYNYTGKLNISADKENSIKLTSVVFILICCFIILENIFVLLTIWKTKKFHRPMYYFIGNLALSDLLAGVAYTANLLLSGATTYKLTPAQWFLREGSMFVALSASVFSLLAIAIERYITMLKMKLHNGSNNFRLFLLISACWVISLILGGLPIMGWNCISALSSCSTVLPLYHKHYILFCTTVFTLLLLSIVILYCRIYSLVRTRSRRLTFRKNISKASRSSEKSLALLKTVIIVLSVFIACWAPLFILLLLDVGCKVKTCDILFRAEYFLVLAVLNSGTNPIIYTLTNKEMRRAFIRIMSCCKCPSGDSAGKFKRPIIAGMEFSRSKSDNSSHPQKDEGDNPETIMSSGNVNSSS
Protocol: Test Embodiment 1: In Vitro Evaluation of the Agonistic Activity of the Compounds of the Present Disclosure on S1PR1
(§1) Experimental objective: to detect the agonistic activity of compounds on S1PR1
I. Cell Treatment • 1. A PathHunter cell line was thawed according to standard procedures; • 2. the cells were inoculated in a 20 μL 384-well microplate and incubated at 37° C. for appropriate time.
II. Agonist • 1. For agonist determination, cells were incubated with samples to be tested to induce a reaction; • 2. a storage solution to be tested was 5-fold diluted into a buffer; • 3. 5 μL of the 5-fold dilution was added to the cells and incubated at 37° C. for 90-180 minutes. The vehicle concentration was 1%.
III. Signal Detection • 1. 12.5 μL or 15 μL of PathHunter detection reagent at a volume ratio of 50% was added at a time, and then incubated at room temperature for 1 hour to generate a detection signal; • 2. the microplate was read with a PerkinElmer Envision™ instrument for chemiluminescent signal detection.
IV. Data Analysis • 1. Activity analysis of the compound was carried out by using CBIS data analysis kit (ChemInnovation, CAA); • 2. calculation formula: % activity=100%×(average test sample RLU−average vehicle RLU)/(average maximum control ligand−average vehicle RLU)

[2] = Pharmacokinetic evaluation in SD rats (intravenous and oral); assay type: in vivo; conditions: male, Sprague-Dawley, plasma, SD rat; for Cmax: read-out: Peak concentration Cmax; for bioavailability: read-out: Bioavailability F; for clearance: read-out: Clearance rate CL; for Vd: read-out: Tissue distribution Vdss; for AUC(0-t): read-out: Area under the drug-time curve AUC0-last PO; for half-life: read-out: Half-life T1/2 (PO) (converted)
Protocol: Test Embodiment 3: Pharmacokinetic Evaluation of Compound in Rats
Experimental objective: to test the pharmacokinetics of the compound in SD rats
Sprague Dawley rat (male, 200-300 g, 7-9 weeks old, Shanghai SLAC)
(§2) A standard protocol was used to test the pharmacokinetic characteristics of rodents after intravenous injection and oral administration of the compound. In the experiment, the candidate compound was prepared into a clear solution, and administrated to rats by single intravenous injection and oral administration. The vehicle for intravenous injection was a 5:95 DMSO and 10% hydroxypropyl cyclodextrin aqueous solution, and the vehicle for oral administration was a 0.5% w/v methylcellulose and 0.2% w/v tween 80 aqueous solution. Whole blood samples within 24 hours were collected, centrifuged at 3000 g for 15 minutes, and the supernatant was separated to obtain plasma samples. 4-fold volume of acetonitrile solution containing internal standard was added thereto to precipitate protein. The mixture was centrifuged, and the supernatant was taken, and an equal volume of water was added thereto. Then the mixture was centrifuged and the supernatant was taken for injection. The blood drug concentration was quantitatively analyzed by LC-MS/MS analysis method, and pharmacokinetic parameters, such as peak concentration, clearance rate, half-life, area under the drug-time curve and bioavailability, were calculated.

[3] = Pharmacokinetic evaluation in CD-1 mice (intravenous and oral); assay type: in vivo; conditions: male, mouse, plasma; for Cmax / bioavailability: intravenous 0.5 mg/kg; for Cmax: oral 2.0 mg/kg (route of Cmax not stated), read-out: Peak concentration Cmax; for bioavailability: oral 2.0 mg/kg, read-out: Bioavailability F; for clearance / Vd: intravenous injection 0.5 mg/kg (oral 2.0 mg/kg); for clearance: read-out: Clearance rate CL; for Vd: read-out: Tissue distribution Vdss; for AUC(0-t) / half-life: oral administration 2.0 mg/kg; for AUC(0-t): read-out: Area under the drug-time curve AUC0-last PO; for half-life: read-out: Half-life T1/2 (PO) (converted)
Protocol: Test Embodiment 4: Pharmacokinetic Evaluation of Compound in Mice
Experimental objective: to test the pharmacokinetics of the compound in CD-1 mice
CD-1 mice (male, 20-40 g, 6-10 weeks old, Shanghai BK)
as §2, with “The standard” for “A standard”, “clear solution or a suspension,” for “clear solution,”, “to two mice” for “to rats”, “hydroxypropyl β-cyclodextrin” for “hydroxypropyl cyclodextrin”, “at 3200” for “at 3000”, “for 10” for “for 15”

[4] = Pharmacokinetic evaluation in SD rats at different oral doses; assay type: in vivo, Sprague Dawley rats; conditions: male, Sprague-Dawley, rat, plasma, po; for AUC(0-t): read-out: Area under the drug-time curve AUC0-last PO; for Cmax: read-out: Peak concentration Cmax; for Tmax: read-out: Peak time Tmax; for half-life: read-out: Half-life T1/2 (PO) (converted)
Protocol: Test Embodiment 5: Pharmacokinetic Evaluation of Compounds in Rats at Different Doses
Experimental objective: to test the pharmacokinetics of the compounds in SD rats at different doses
Sprague Dawley rats (male, 200-300 g, 7-9 weeks old, Shanghai SLAC)
A standard protocol was used to test the pharmacokinetic characteristics of the compounds in SD rats after oral administration. In the experiment, the candidate compound was prepared into a clear solution, and administrated to rats by single oral administration. The vehicle for compound 1 was DMSO: 10% hydroxypropyl β-cyclodextrin aqueous solution=5:95. The vehicle for compounds 1A and 1B was 0.5% carboxymethyl cellulose +0.2% Tween 80. Whole blood samples of compounds 1, 1A and 1B within 48 hours were collected, centrifuged at 3000 g for 15 minutes, and the supernatant was separated to obtain plasma samples. 4-fold volume of acetonitrile solution containing internal standard was added thereto to precipitate protein. The mixture was centrifuged, and the supernatant was taken, and an equal volume of water was added thereto. Then the mixture was centrifuged and the supernatant was taken for injection. The blood drug concentration was quantitatively analyzed by LC-MS/MS analysis method, and pharmacokinetic parameters, such as peak concentration, peak time, half-life, area under the drug-time curve, were calculated.

[5] = target: T1, S1PR1; test: In vitro S1PR1 agonistic activity, U2OS-EDG1 cells, LiveBLAzer-FRET B/G (CCF4-AM); assay type: cell-based; conditions: for EC50: 20 hours incubation; for Emax: % Effect
Protocol: Test Embodiment 2: In Vitro Evaluation of the Agonistic Activity of the Compounds of the Present Disclosure on S1PR1
as §1
I. Cell Treatment • 1. The cells U2OS-EDG1 (batch number: Invitrogen-K1520) were taken out from a liquid nitrogen tank and quickly thawed in a 37° C. water bath; • 2. the cell suspension was aspirated into a 15 mL centrifuge tube, resuspended in 5 mL of pre-warmed culture medium, and centrifuged at 1000 rpm for 5 min; • 3. the supernatant was discarded, 10 mL of culture medium was resuspended, transferred to a T75 culture flask, and cultured in a 37° C., 5% CO2 incubator.
II. Agonist Assay • 1. Compounds were diluted to working concentrations, and the compounds were 3-fold diluted by Echo 555 (manufacturer: Labcyte) to 10 concentrations, and then 200 nL of each concentration were transferred to cell plates, and centrifuged at 1000 rpm for 15 seconds; • 2. the culture medium in the culture flask was aspirated, and 4 mL of Dulbecco's Phosphate Buffered Saline (DPBS, supplier: Coring, catalog number: 21-031-CVR, batch number: 03318006) was added thereto to wash off the residual serum, and 2 mL of trypsin was added thereto, and incubated in a 37° C. incubator for 2 minutes to digest the cells, and then 10 mL of seed plate culture medium was added to resuspend the cells, and 0.6 mL of the cell suspension was taken out for counting; • 3. the cell density was adjusted with the seed plate culture medium to 1.88E+05 cells/mL, 40 μL was seeded per well (7500\well), and 40 μL of FreeStyle™ Expression culture medium was added around the cell plate, left to stand for 15 minutes at room temperature, and incubated at 37° C. with 5% CO2 for 20 hours.
III. Signal Detection • 1. LiveBLAzer™-FRET B/G Substrate (CCF4-AM) detection reagent was configured according to the instructions; • 2. 8 μL of 6×Substrate Mixture was added to each well of the cell plate, centrifuged at 1000 rpm for 15 seconds, attached with a membrane, incubated at 23° C. for 2 hours, and detected by Envision […].
IV. Data Analysis • 1. The original data was converted into % Effect by using the equation, and the value of EC50 could be obtained by curve fitting with four parameters [obtained in the “log(agonist) vs. response—Variable slope” mode in GraphPad Prism]; • 2. calculation formula: Ratio=(460 nm−blank)/(535 nm−blank) % Effect=(SampleRatio−Ave LCRatio)/(Ave HCRatio−Ave LCRatio)*100%

[6] = intravenous injection 0.8 mg/kg (oral 2.4 mg/kg)
[7] = 5 mg/kg, single oral administration 5 mg/kg
[8] = 30 mg/kg, single oral administration 30 mg/kg
[9] = intravenous injection 1.0 mg/kg (oral 3.0 mg/kg)

Compound: CC(C)Oc1ccc(-c2nc(-c3cccc4c3CCC43CCN(CC4(C(=O)O)CC4)C3)no2)cc1C#N (centres unmarked) [Hydrochloride of compound 22]
- EC50 [1]: 75.4 pM
- Emax [1]: 118%
- Cmax ([2]; intravenous 0.8 mg/kg, oral 2.4 mg/kg (route of Cmax not stated)): 1770 ng/mL
- bioavailability ([2]; intravenous 0.8 mg/kg, oral 2.4 mg/kg): 69.5%
- clearance [2, 6]: 3.44 mL/min/kg
- Vd [2, 6]: 1.6 L/kg
- AUC(0-t) ([2]; oral administration 2.4 mg/kg): 16.3 µM·h
- half-life ([2]; oral administration 2.4 mg/kg): 4.67 h
- Cmax [3]: 869 ng/mL
- bioavailability [3]: 62.5%
- clearance [3]: 5.2 mL/min/kg
- Vd [3]: 1.82 L/kg
- AUC(0-t) [3]: 7.88 µM·h
- half-life [3]: 3.66 h
- AUC(0-t) [4, 7]: 32.3 µM·h
- Cmax [4, 7]: 2400 nM
- Tmax [4, 7]: 5 h
- AUC(0-t) [4, 8]: 256 µM·h
- half-life [4, 8]: 8.24 h
- Cmax [4, 8]: 15300 nM
- Tmax [4, 8]: 2 h

Compound: N#Cc1cc(-c2nc(-c3cccc4c3CCC43CCN(CC4(C(=O)O)CC4)C3)no2)ccc1OC(F)F (centres unmarked) [Hydrochloride of compound 34]
- EC50 [5]: 6070 pM
- Emax ([5]; read-out: Emax): 94.9%

Compound: CC(C)Oc1ccc(-c2nc(-c3cccc4c3CCC43CCN(C(=O)CO)C3)no2)cc1C#N (centres unmarked) [Compound 1]
- EC50 [1]: 137 pM
- Emax [1]: 122%
- Cmax ([2]; intravenous 1.0 mg/kg, oral 3.0 mg/kg (route of Cmax not stated)): 1140 ng/mL
- bioavailability ([2]; intravenous 1.0 mg/kg, oral 3.0 mg/kg): 83.1%
- clearance [2, 9]: 5.97 mL/min/kg
- Vd [2, 9]: 2.66 L/kg
- AUC(0-t) ([2]; oral administration 3.0 mg/kg): 11.5 µM·h
- half-life ([2]; oral administration 3.0 mg/kg): 4.91 h
- Cmax [3]: 615 ng/mL
- bioavailability [3]: 70.1%
- clearance [3]: 18.2 mL/min/kg
- Vd [3]: 2.17 L/kg
- AUC(0-t) [3]: 2.74 µM·h
- half-life [3]: 3.61 h

Compound: CC(C)Nc1ncc(-c2nc(-c3cccc4c3CCC43CCN(CC4(C(=O)O)CC4)C3)no2)cc1C#N (centres unmarked) [Hydrochloride of compound 33]
- EC50 [5]: 10200 pM
- Emax ([5]; read-out: Emax): 99.9%

Next, values leading:

- EC50 [5]: 320 pM
- Emax [5]: nM, 74.0%
- AUC(0-t) [4, 7]: 33 µM·h
- half-life [4, 7]: 6.7 h
- Cmax [4, 7]: 2940 nM
- Tmax [4, 7]: 3 h
Compound: CC(C)Oc1ccc(-c2nc(-c3cccc4c3CCC43CCN(CC4(C(=O)O)CC4)C3)no2)cc1C#N (single isomer, unassigned) [Compound 22B]

- EC50 [5]: 1450 pM
- Emax ([5]; read-out: Emax): 95.9%
Compound: CC(C)Oc1ncc(-c2nc(-c3cccc4c3CCC43CCN(CC4(C(=O)O)CC4)C3)no2)cc1C#N (centres unmarked) [Hydrochloride of compound 32]

- EC50 [5]: 456 pM
- Emax ([5]; read-out: Emax): 101%
Compound: N#Cc1cc(-c2nc(-c3cccc4c3CCC43CCN(CC4(C(=O)O)CC4)C3)no2)ccc1OC1CCCC1 (centres unmarked) [Hydrochloride of compound 31]

- EC50 [5]: 132 pM
- Emax ([5]; read-out: Emax): 103%
Compound: CC(C)Oc1ccc(-c2nc(-c3cccc4c3CCC43CCN(CC4(C(=O)O)CC4)C3)no2)cc1Br (centres unmarked) [Hydrochloride of compound 30]

- EC50 [5]: 21.1 pM
- Emax ([5]; read-out: Emax): 91.5%
Compound: CC(C)Oc1ccc(-c2nc(-c3cccc4c3CCC43CCN(CC4(C(=O)O)CC4)C3)no2)cc1C(F)F (centres unmarked) [Hydrochloride of compound 29]
